Reference: publication PMC7297817, “Pharmacological Characterization of a Betaine/GABA Transporter 1 (BGT1) Inhibitor Displaying an Unusual Biphasic Inhibition Profile and Anti-seizure Effects” (Neurochemical Research, 2020)
Entries after “also recorded” stand apart in the source; their conditions may differ. Where two headings read alike, the source gives them in different places.

What was measured:
[1] = biological target: T1, Alpha1A (Homo sapiens, UniProt P35348); experiment: NIMH PDSP radioligand binding, Alpha1A; details: radioligand [3H]prazosine, n=4
T1 construct: purchased NIMH Psychoactive Drug Screening Program (PDSP)

[2] = biological target: T2, mBGT1 (Mus musculus, UniProt P31651); experiment: [3H]GABA uptake at mBGT1 stably expressed in HEK-293 cells; assay type: cell-based
T2 construct: expressed in transfected cells
T2 sequence (P31651 1-614): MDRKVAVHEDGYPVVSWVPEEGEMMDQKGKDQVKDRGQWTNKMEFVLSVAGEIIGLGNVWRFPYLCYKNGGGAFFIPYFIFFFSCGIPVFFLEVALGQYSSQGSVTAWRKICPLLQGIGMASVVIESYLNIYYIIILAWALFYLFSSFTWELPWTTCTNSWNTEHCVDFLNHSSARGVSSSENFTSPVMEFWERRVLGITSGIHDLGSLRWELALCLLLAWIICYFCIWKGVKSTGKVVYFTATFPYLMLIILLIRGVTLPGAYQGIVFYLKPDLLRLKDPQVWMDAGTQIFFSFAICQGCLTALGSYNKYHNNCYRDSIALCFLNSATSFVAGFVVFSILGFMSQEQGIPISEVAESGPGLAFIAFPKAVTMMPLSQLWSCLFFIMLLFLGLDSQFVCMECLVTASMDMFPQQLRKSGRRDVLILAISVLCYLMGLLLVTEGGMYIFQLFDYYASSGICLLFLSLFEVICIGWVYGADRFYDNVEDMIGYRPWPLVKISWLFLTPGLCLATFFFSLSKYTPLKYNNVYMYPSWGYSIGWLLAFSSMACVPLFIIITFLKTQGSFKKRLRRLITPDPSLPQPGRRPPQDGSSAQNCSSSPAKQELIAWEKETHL
Experimental: (§1) The HEK-293 and Flp-In CHO cell lines stably expressing mouse (m) and human (h) GATs, respectively, have been described previously and were cultured accordingly. The tsA201 cell line was used for transient expression while the MDCK II cell line express BGT1 endogenously. Both cell lines were cultured as described. tsA201 cells were transfected with DNA constructs (8 μg per 10 cm dish if not otherwise mentioned) using 40 μL PolyFect transfection reagent according to the manufacturer’s protocol (Qiagen, Venlo, Netherlands). The DNA constructs encoding hBGT1, hGAT1-3 [36], the mutated constructs hBGT1 Q299 and hGAT3 L314Q described previously, and hBGT Y453A were synthesized and sequence validated by Genscript (NJ, USA).
(§2) The [^3H]GABA competition uptake assay was performed as previously described. A minor change, however, was introduced for uptake in MDCK II cells, in which 100 nM [^3H]GABA was used for a 15 min incubation period at 37 °C instead of 30 nM [^3H]GABA and 3 min incubation. Studies related to the inhibition curves with GABA and BPDBA at hBGT1 were obtained both with and without the presence of 10 μM ATP during the [^3H]GABA uptake assay.
(§3) The [^3H]GABA uptake data was normalized to the percentage of total uptake in the individual experiments in the presence of the lowest compound concentration or no compound present. Data presented is the pooled data of at least three independent experiments with three technical replicates. Concentration–response curves (CRCs) were fitted with GraphPad Prism (version 8.2.1, Yosemite, GraphPad Software, San Diego, CA, USA) by non-linear regression to the sigmoidal concentration response model: Y=Bottom+(Top-Bottom)/1+10^LogIC50-X∗nH where Top is the Top plateau, Bottom is the Bottom plateau, X is the logarithm of the concentration of the compound, LogIC50 is the concentration giving a response halfway between Top and Bottom,and nH is the Hill slope.
(§4) The best fit for CRCs obtained with the [^3H]GABA uptake assay was identified by the extra-sum-of-squares F test (for convenience referred to as F test).

[3] = biological target: T3, 5-HT1D (Homo sapiens, UniProt P28221); experiment: NIMH PDSP radioligand binding, 5-HT1D; details: radioligand [3H]GR125743, n=4
T3 construct: purchased NIMH Psychoactive Drug Screening Program (PDSP)

[4] = biological target: T4, Beta3 (Homo sapiens, UniProt P13945); experiment: NIMH PDSP radioligand binding, Beta3; details: radioligand [3H]CGP12177, n=4
T4 construct: purchased NIMH Psychoactive Drug Screening Program (PDSP)

[5] = system: BZP rat brain; experiment: NIMH PDSP radioligand binding, BZP rat brain; details: 10 μM; radioligand [3H]Flunitrazepam; n=4
Experimental: IC50 values in μM (Ki μM)^a. The targets in bold were inhibited by >35% at 10 μM.

[6] = biological target: T5, D3 (Homo sapiens, UniProt P35462); experiment: NIMH PDSP radioligand binding, D3; details: radioligand [3H]N-methylspiperone, n=4
T5 construct: purchased NIMH Psychoactive Drug Screening Program (PDSP)

[7] = biological target: T6, hGAT2 (Homo sapiens, UniProt Q9NSD5); experiment: [3H]GABA uptake at hGAT2 stably expressed in CHO cells; assay type: cell-based
T6 construct: expressed in transfected cells
T6 sequence (Q9NSD5 1-602): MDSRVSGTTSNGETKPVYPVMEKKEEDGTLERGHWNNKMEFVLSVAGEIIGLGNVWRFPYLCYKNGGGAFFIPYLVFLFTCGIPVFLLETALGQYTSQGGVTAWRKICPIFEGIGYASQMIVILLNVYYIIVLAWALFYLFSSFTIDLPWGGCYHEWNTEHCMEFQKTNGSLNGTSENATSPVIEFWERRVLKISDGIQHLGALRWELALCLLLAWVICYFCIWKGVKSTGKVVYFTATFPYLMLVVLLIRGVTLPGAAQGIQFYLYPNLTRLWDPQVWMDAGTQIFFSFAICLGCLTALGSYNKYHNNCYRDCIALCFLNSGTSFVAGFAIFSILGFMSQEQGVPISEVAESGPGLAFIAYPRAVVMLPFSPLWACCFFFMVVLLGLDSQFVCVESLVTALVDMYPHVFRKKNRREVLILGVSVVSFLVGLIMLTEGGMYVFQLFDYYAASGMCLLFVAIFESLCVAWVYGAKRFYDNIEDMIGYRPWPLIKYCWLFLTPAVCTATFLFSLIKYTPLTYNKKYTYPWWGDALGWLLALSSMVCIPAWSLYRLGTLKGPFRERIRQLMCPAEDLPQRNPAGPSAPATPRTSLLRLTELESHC
Experimental: as §1, §2, §3, §4

[8] = biological target: T7, SERT (Homo sapiens, UniProt P31645); experiment: NIMH PDSP radioligand binding, SERT; details: radioligand [3H]citalopram, n=4
T7 construct: purchased NIMH Psychoactive Drug Screening Program (PDSP)

[9] = biological target: T8, D5 (Homo sapiens, UniProt P21918); experiment: NIMH PDSP radioligand binding, D5; details: radioligand [3H]SCH23390
T8 construct: NIMH PDSP (screening service)

[10] = biological target: T9, hGAT3 L314Q (Homo sapiens, UniProt P48066, L314Q); experiment: [3H]GABA uptake at hGAT3 L314Q mutant transiently expressed in tsA201 cells; assay type: cell-based; details: 30 nM [3H]GABA, 3 min
T9 construct: expressed in transfected cells; host or cells: tsA201 (transient)
Experimental: as §1, §2
The [^3H]GABA uptake data was normalized to the percentage of total uptake in the individual experiments in the presence of the lowest compound concentration or no compound present. […]

T8 sequence (P21918 whole entry): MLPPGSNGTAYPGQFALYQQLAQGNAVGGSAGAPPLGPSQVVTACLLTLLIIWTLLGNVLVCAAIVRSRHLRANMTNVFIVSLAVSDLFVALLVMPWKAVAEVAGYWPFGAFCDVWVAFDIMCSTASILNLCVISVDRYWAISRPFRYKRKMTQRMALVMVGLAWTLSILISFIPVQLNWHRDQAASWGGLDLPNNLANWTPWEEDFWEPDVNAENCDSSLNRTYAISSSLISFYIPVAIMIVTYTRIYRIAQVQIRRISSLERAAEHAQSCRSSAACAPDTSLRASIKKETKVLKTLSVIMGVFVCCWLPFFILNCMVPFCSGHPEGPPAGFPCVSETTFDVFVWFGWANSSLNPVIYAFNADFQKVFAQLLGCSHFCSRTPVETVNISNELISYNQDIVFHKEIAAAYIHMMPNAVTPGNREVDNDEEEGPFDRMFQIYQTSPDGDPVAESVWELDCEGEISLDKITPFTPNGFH
T5 sequence (P35462 whole entry): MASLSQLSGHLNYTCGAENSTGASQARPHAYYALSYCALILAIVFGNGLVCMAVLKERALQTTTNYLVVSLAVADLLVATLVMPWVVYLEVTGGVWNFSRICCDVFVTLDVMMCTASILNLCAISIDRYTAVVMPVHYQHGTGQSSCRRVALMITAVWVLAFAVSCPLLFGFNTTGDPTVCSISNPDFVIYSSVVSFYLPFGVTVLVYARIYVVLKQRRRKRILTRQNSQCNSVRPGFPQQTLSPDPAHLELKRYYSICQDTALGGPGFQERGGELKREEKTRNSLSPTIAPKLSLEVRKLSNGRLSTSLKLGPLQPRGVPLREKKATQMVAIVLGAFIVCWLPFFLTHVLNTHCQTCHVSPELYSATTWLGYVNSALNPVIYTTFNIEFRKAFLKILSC
T3 sequence (P28221 whole entry): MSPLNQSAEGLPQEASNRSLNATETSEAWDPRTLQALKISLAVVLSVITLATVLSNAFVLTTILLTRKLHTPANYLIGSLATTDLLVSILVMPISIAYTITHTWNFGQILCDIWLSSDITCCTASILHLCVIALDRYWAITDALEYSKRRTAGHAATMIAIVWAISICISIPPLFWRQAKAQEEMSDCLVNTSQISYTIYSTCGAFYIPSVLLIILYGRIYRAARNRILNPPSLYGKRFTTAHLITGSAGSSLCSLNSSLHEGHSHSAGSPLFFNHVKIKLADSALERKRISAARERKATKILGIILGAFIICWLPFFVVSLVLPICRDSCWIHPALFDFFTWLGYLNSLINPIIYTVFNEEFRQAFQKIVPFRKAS
T1 sequence (P35348 whole entry): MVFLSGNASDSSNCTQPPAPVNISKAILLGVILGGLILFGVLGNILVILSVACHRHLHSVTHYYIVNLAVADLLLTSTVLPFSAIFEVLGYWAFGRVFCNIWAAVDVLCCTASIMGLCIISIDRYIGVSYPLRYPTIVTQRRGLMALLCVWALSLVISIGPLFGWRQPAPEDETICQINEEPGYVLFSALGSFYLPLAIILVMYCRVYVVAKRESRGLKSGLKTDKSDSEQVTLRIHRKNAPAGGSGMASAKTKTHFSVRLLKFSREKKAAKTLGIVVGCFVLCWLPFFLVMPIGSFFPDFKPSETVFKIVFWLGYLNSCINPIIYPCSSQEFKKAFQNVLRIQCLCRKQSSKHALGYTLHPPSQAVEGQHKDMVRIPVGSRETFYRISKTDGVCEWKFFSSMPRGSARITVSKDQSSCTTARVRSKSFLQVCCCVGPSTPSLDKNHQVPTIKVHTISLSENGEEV
T9 sequence (P48066 whole entry L314Q): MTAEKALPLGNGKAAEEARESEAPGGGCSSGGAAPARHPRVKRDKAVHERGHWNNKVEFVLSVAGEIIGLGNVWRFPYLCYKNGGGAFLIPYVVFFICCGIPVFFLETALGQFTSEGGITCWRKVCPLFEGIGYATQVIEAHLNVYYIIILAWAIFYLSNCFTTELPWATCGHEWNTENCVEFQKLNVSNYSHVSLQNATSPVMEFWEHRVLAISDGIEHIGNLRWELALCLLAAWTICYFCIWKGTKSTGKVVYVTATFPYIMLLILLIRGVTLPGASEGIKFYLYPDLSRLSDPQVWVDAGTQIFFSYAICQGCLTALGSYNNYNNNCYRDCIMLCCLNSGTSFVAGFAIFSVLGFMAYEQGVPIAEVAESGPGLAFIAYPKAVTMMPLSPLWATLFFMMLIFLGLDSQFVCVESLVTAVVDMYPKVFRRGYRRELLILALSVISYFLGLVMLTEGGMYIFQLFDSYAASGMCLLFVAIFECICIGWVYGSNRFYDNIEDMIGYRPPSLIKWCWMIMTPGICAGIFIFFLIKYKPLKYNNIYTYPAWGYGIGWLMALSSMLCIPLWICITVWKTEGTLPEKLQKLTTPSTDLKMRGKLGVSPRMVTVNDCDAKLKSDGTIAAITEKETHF
T4 sequence (P13945 whole entry): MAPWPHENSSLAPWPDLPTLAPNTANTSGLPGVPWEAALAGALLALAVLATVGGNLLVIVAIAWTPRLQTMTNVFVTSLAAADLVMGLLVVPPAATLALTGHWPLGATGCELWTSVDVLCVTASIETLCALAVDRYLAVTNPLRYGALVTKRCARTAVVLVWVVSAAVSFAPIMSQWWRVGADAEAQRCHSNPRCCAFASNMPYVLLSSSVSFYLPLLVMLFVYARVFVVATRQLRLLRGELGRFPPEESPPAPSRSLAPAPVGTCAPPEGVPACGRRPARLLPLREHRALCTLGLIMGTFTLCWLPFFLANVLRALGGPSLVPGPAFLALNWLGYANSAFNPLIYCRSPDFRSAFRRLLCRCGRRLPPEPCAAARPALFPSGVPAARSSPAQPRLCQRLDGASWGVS
T7 sequence (P31645 whole entry): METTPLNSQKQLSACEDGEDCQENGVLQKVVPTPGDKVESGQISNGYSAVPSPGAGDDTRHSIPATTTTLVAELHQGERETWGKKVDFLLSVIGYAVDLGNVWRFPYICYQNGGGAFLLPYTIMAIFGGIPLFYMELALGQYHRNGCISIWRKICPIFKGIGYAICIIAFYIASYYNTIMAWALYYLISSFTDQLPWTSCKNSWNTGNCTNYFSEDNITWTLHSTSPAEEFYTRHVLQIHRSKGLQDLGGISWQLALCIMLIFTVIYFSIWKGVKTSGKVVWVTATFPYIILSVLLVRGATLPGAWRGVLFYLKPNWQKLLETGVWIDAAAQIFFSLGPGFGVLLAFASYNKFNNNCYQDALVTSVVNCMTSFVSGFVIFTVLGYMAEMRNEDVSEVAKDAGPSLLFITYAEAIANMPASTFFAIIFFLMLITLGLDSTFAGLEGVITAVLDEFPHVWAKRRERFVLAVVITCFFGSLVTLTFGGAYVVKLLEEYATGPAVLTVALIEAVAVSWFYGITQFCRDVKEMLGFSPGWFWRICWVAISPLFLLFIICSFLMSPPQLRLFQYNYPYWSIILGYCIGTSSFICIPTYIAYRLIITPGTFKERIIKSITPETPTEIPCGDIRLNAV

Cc1ccsc1C(=CCCN(C)[C@H]1CCCC[C@H]1C(=O)O)c1sccc1C [SBV2-114, (1R,2S)-2-((4,4-bis(3-methylthiophen-2-yl)but-3-en-yl)(methyl)amino)cyclohexanecarboxylic acid]
inhibition at 10 µM [1]: 0.1%
IC50 [2]: 3.8 µM
% inhibition (Frac value) at the low IC50 ([2]; biphasic fit): 45%
Fit ([2]; preferred model, extra-sum-of-squares F test, N=5): Biphasic
IC50 ([2]; read-out: IC50, low affinity component (high IC50), biphasic fit, 30 nM [3H]GABA, 3 min, HEK-293): 408 µM
inhibition at 10 µM [3]: 19.6%
inhibition at 10 µM [4]: 8.3%
% inhibition [5]: 9.1%
inhibition at 10 µM [6]: 27.8%
IC50 ([7]; ambiguous fit, N=3, CHO, read-out: IC50): 525 µM
Frac ([7]; biphasic fit, N=1, CHO): 0.06
IC50 ([7]; biphasic fit, N=1, CHO, read-out: IC50, high affinity component): 3.31 µM
Fit ([7]; preferred model per experiment): Biphasic; also recorded: Ambiguous
IC50 ([7]; read-out: IC50, low affinity component, biphasic fit, N=1, CHO): 550 µM
inhibition at 10 µM [8]: 18.8%
inhibition at 10 µM ([9]; 10 μM, n=4): 51.7%
Ki ([9]; full curve, printed with 'ave'): 10 µM
inhibition profile and activity at hGAT3 L314Q [10]: activity in hGAT3 L314Q similar to hBGT1
